Measurements taken from patent US9549977B2 (priority 2011, dated 2017).
Marks after values point to notes of the source that are not given here.

Legend:
IL 1β [1] = test: IL 1β transcription in head kidney leukocytes, real time PCR; format: cell-based, rainbow trout (Oncorhynchus mykiss); details: 10^−10, 10^−9, 10^−8 M tested, 48 h
Protocol: (§1) FIG. 4. Expression analysis by real time PCR of the in vitro effect of PACAP38 over the transcription of IL 1β in peripheral blood leukocytes (A) and head kidney (B) of naïve rainbow trout. The effects of PACAP administration at a concentration of 10^−10 M, 10^−9 M and 10^−8 M was evaluated at 48 h post-treatment. The experiment was repeated 4 times. The leukocyte cultures were treated in duplicates and the PCRs were performed in triplicate. Data are expressed as mean of relative expression of IL 1β related to the endogenous elongation factor EF1α±standard deviation (SD).
(§2) We used juvenile rainbow trout (O. mykiss) of approximately 50 g, free of the VHSV and IPNV. Fish (n=5) were anesthetized with methanesulfonic acid salt (Sigma, USA) and peripheral blood from the tail vein was taken aseptically of each fish and then the head kidney was collected. […]
(§3) The levels of IL 1β and IL 15 were evaluated 48 hours after treatment. […]
(§4) For cDNA synthesis was used a commercial kit that use the SuperScript III reverse transcriptase (Invitrogen). Finally, for quantitative PCRs (qPCRs) was used a commercial mixture of PCR: Power SYBR Green PCR Master Mix (Applied Biosystems). […] The results were expressed as 2^−ΔCt, where ΔCt is equal to the remainder of the Ct value of the target gene minus the Ct value of the normalized gene EF 1α.

IL 1β [2] = test: IL 1β transcription in peripheral blood leukocytes, real time PCR; format: cell-based, rainbow trout (Oncorhynchus mykiss)
Protocol: as §1, §2, §3, §4

IL 15 [3] = test: IL 15 expression in peripheral blood leukocytes, real time PCR; format: cell-based, rainbow trout (Oncorhynchus mykiss)
Protocol: (§5) FIG. 5. Expression analysis by real time PCR of the in vitro effect of PACAP38 over the transcription of IL 15 in peripheral blood leukocytes (A) and head kidney (B) of neïve rainbow trout. The effects of PACAP administration at a concentration of 10^−10 M, 10^−9 M and 10^−8 M was evaluated at 48 h post-treatment. The experiment was repeated 4 times. The leukocyte cultures were treated in duplicates and the PCRs were performed in triplicates. Data are expressed as the mean of the relative expression of IL 15 related to the endogenous elongation factor EF1α±standard deviation (SD). (*) p<0.05.
as §2, §3, §4

[4] = system: Ichthyophthirius multifiliis; test: Survival of channel catfish immunized and challenged with live theronts of I. multifiliis; format: in vivo, channel catfish (Ictalurus punctatus); details: PACAP immersion baths 100 μg/L, 6 baths of 1 hour, versus immunized fish
Protocol: An experiment was conducted to evaluate the effect of PACAP administration, after immunization with ciliated parasite theronts I. multifiliis, on survival of channel catfish (I. punctatus). The vaccination and challenge procedure was performed as proposed by Wang and Dickerson ((2002) Clinical and Diagnostic Laboratory Immunology 9 (1), 176-181). Four experimental groups of 25 fish (12±5 g) each one were established:
Group 1: Fish immunized on days 1 and 35 with PBS.
Group 2: Fish immunized on day 1 with 8000 live theronts I. multifiliis and at day 35 with 10,000 living theronts parasite.
Group 3: Fish immunized on day 1 with 8000 live theronts I. multifiliis and at day 35 with 10,000 living theronts parasite. These fish also received by immersion baths the neuropeptide PACAP at a dose of 100 μg of PACAP/L of water. The treatment was performed for 1 hour, on alternate days, in the two weeks prior to challenge (six immersion baths).
Group 4: Fish immunized on day 1 with 8000 live theronts I. multifiliis and at day 35 with 10,000 living theronts parasite. These fish were also subjected to immersion baths for 1 hour without PACA, by a procedure similar to Group 3.
Prior to the immunizations fish were treated with formalin to remove existing ectoparasites. The fish were maintained at 23±2° C. and continuous water flow. At day 84, the fish were challenged with 15 000 theronts. […]

IL 15 [5] = test: IL 15 expression in head kidney leukocytes, real time PCR; format: cell-based, rainbow trout (Oncorhynchus mykiss); details: 10^−9 M, 48 h, vs negative control
Protocol: as §5, §2, §3, §4

Caligus rogercresseyi = test: Controlled challenge test with Caligus rogercresseyi in immunized Salmo salar
Protocol: In this experiment were established six experimental groups of 25 animals (average weight 80 g) each one:
Group 1: Injected IP with PBS
Group 2: Injected IP with PACAP38 at the dose of 1 μg/fish
Group 3: Injected IP with my32 at the dose of 3 μg/g of body weight (gbw)
Group 4: Co-administration by IP injection of my32 at 3 μg/gbw and PACAP at the dose of 1 μg/fish
Group 5: Fish injected IP with my32 at the dose of 3 μg/gbw and fed with 250 μg of PACAP/Kg of feed daily, for one week before and after de immunization with my32.
After 500 arbitrary thermal units, fish were adapted to seawater for two weeks. Subsequently, they were challenged with 2000±200 copepodites to each tank. […] Turnover and filtration was performed manually every 48 hours. At 24 days, fish were anesthetized and killed for parasite counting under a stereomicroscope.

**Q.** With PACAP38 as the substance, how does the “IL1β transcription (relative expression to EF1α)” value (IL 1β [1]) read?
**A.** The value was “stimulatory effect only at a dose of 10^−9 M”.

**Q.** What about the “transcription of IL 1β (relative expression to EF1α)” value (IL 1β [2]; 10^−9 M, 48 h, vs negative control, below the 10^−10 M level) of the same substance?
**A.** Its value is “stimulatory effect”.

**Q.** And the “IL 1β levels (relative expression to EF1α)” value (IL 1β [2]; 10^−10 M, 48 hours)?
**A.** Its value is “increased”.

**Q.** And the “expression of the IL 15 (relative to EF1α)” value (IL 15 [3]; 10^−9 M, 48 h)?
**A.** Its value is “stimulatory effect”.

**Q.** What about the “expression of the IL 15 (relative to EF1α)” value (IL 15 [3]; 10^−10 M, 48 h (highest values)) of the same substance?
**A.** Its value is “stimulatory effect”.

**Q.** What about the “increase in survival of immunized fish simultaneously treated with PACAP” value [4] of the same substance?
**A.** Its value is 27%.

**Q.** What about the “IL 15 expression levels (relative to EF1α)” value (IL 15 [5]) of the same substance?
**A.** The value was “statistically higher than the negative control group”.

**Q.** What about the “Inhibition of the infestation (%)” value (Caligus rogercresseyi; 24 days post-challenge, (1 − T/C) × 100 versus placebo group) of the same substance?
**A.** Its value is 22%.

**Q.** And the Number of parasites/fish (Caligus rogercresseyi; S. salar, 24 days post-challenge with C. rogercresseyi, PACAP 1 μg/fish IP or 250 μg/Kg feed, my32 3 μg/gbw IP)?
**A.** Its Number of parasites/fish is 29 ± 5^b.
